Data on eleven compounds can be found in PMC10252845, “Identification and Characterization of Novel ACE Inhibitory and Antioxidant Peptides from Sardina pilchardus Hydrolysate” (Foods, 2023).

Where a SMILES comes first, the peptide text is derived from it.

Data set [1] can be described thus: Fe2+-chelating ability (ferrozine). The conditions noted are these: positive control 10 μg/mL.
Experimental: When Fe^2+ and ferrozine are combined, they form a stable magenta-colored complex. The presence of chelators in the solution can cause them to bind with the Fe^2+ ions, thereby preventing the formation of the Fe^2+-ferrozine complex. As a result, the amount of Fe^2+-ferrozine complex in the solution decreases, leading to a decrease in the absorbance of the solution at 562 nm.
The sample (1 mg/mL) group was a 1 mL sample mixed with 3.7 mL deionized water and 0.1 mL of FeCl2 (2 mmol/L) and 0.2 mL of ferrozine (5 mmol/L). The mixture was protected from light and kept at room temperature for 10 min prior to measuring the absorbance at 562 nm. Control group contained everything, except it used deionized water instead of sample, and blank group used deionized water instead of FeCl2 (2 mmol/L). […] The chelating ability was calculated according to the following equation:(7) Fe^2+-chelating ability=(1 − A1−A2/A3) × 100, where A1 is absorbance of sample group, A2 is absorbance of blank group, and A3 is absorbance of control group.
Data set [2] addresses T1, ACE (from rabbit lung) (Oryctolagus cuniculus, UniProt P12822).
T1 construct: ACE (from rabbit lung); purchased Sigma Chemicals Co., Ltd. (St. Louis, MO, USA); host or cells: rabbit lung (tissue of origin)
T1 sequence (P12822 34-1310): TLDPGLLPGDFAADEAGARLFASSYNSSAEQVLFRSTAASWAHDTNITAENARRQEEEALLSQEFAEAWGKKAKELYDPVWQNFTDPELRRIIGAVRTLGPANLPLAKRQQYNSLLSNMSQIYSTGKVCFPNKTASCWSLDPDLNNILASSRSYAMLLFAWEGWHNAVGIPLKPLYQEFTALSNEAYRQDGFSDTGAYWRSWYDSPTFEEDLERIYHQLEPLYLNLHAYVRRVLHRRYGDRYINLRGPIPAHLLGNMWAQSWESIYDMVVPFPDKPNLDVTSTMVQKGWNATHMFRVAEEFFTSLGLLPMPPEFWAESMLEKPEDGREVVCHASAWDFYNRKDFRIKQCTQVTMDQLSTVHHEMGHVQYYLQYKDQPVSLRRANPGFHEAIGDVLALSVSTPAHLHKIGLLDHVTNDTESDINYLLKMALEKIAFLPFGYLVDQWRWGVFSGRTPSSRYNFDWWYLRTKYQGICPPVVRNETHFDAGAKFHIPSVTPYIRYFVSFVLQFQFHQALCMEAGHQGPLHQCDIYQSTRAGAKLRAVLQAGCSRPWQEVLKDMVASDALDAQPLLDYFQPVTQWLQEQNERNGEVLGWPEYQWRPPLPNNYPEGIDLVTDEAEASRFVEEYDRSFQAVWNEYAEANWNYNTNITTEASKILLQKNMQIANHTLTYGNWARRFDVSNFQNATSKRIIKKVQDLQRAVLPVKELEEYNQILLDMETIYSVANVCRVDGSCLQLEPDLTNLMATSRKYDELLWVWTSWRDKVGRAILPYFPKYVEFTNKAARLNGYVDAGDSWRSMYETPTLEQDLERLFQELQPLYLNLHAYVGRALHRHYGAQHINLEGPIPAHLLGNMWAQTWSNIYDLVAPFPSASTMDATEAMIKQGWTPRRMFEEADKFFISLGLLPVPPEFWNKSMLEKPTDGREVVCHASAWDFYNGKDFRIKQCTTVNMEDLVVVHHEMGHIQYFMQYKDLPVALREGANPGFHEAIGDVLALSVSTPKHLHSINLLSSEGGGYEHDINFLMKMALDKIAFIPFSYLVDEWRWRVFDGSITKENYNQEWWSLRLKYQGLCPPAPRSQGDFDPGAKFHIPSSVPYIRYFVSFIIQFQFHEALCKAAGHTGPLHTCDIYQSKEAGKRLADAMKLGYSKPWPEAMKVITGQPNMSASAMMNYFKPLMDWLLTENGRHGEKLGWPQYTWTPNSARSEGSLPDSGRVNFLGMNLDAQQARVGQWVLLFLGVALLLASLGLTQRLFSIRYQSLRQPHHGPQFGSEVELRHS
The experiment in a line: In vitro ACE inhibitory activity assay (HHL substrate, hippuric acid by HPLC). The conditions noted are these: synthetic peptides; read-out: IC50 for ACE inhibition (converted). Type of data set: biochemical. From the text: (§1) Raw sardines (S. pilchardus) were purchased from Xiangtai Fisheries Co., Ltd. (Haikou, Hainan, China). ACE (from rabbit lung) and N-Hippuryl-His-Leu (HHL) were purchased from Sigma Chemicals Co., Ltd. (St. Louis, MO, USA). Dispase (enzyme activity 200 U/mg) was purchased from Adamas Chemicals Co., Ltd. (Shanghai, China). Alkaline protease (enzyme activity 200 U/mg) and borate buffer solution (BBS, pH8.4, containing 0.1 M H3BO3 and 0.025 M Na2B4O7) were purchased from Shanghai Yuanye Biotechnology Co., Ltd. (Shanghai, China). Trifluoroacetic acid (TFA), formic acid (FA), and acetonitrile (ACN) were obtained from Thermo Fisher Scientific Co., Ltd. (Waltham, MA, USA). The materials used for HPLC analysis were of HPLC grade, and all other reagents were of analytical grade. Artificial gastric fluid (10 g/L pepsin) and artificial intestinal fluid (10 g/L pancreatic enzyme) were purchased from Guangzhou Testing Technology Co., Ltd. (Guangzhou, China).
The ACE inhibitory activity assay was determined according to a previous report with some modifications. HHL was dissolved in BBS to make a solution with a concentration of 5 mmol/L. The ACE was dissolved in BBS at a concentration of 0.06 U/mL. The reaction system was as follows: 20 μL of 0.06 U/mL ACE solution and 40 μL of sample solution or control (BBS) was added. After 5 min in a water bath at 37 °C, 50 μL of 5 mM HHL was added and incubated at 37 °C for 1 h. At the end of the incubation, 50 μL of […] was added to terminate the reaction. 500 μL water was added to the reaction system. Hippuric acid (HA) was quantified after being released from the system using HPLC and InertSustain C18 (5 μm, 4.6 × 250 mm). HPLC analysis conditions were as follows: the UV wavelength was constant at 228 nm, the mobile phase was 0.1% TFA/25% ACN in water, the flow rate was 1 mL/min, and the injection volume was 10 μL. The ACE inhibition activity was calculated by the following equation:(1) ACE Inhibition Activity=∆A−∆B/∆A × 100, where ΔA represented the peak area of HA in the control group; ΔB represented the peak area of the sample group.
All experiments were performed in triplicate (except for the molecular docking results), and data were reported as mean ± SD (n ≥ 3). An ANOVA test using SPSS 26.0 (SPSS Corporation, Chicago, IL, USA) was used to analyze the experimental data. The IC50 value was defined as the half concentration of the peptide required to inhibit the ACE activity, and the IC50 of the ACE inhibitory peptides was determined by calculating the ACE inhibition rate at various sample concentrations using the SPSS 26.0 probit regression model.

Data set [3] in a line: Digestive stability in artificial intestinal fluid. Type of data set: in vitro ADME. The note with it: 37 °C, 2.0 h.
From the text: as §1
Peptides were quantified using HPLC and InertSustain C18 (5 μm, 4.6 × 250 mm). For FIGR, HPLC analysis conditions were as follows: the UV wavelength was constant at 228 nm, the mobile phase was 0.1% TFA/15% ACN in water, the flow rate was 1 mL/min, and the injection volume was 10 μL. For rest peptides, the mobile phase was 0.1% TFA/25% ACN in water, and the other conditions were the same as FIGR.
The peptide solutions of 0.10, 0.25, 0.50, 1.00, and 1.50 mg/mL were prepared precisely, and the peak areas of the peptides at different concentration conditions were determined. The peak area was plotted as the vertical coordinate and the concentration as the horizontal coordinate to find out the regression equation.
In total, 50 μL of the 10 mg/mL peptide solution was mixed with 450 μL of artificial gastric fluid or artificial intestinal fluid in a water bath at 37 °C for 2.0 h. Then, digestion was stopped in a water bath at 90 °C for 5 min, and the method for determining the peptide content was mentioned in Section 2.10.1. Peptide preservation rate was calculated as (3) Peptide Preservation Rate=Peptide content after treatment/Peptide content before treatment × 100,

Data set [4] is described as follows: ABTS+ scavenging activity. The note with it: positive control 10 μg/mL. The procedure:
The 2,2′-Azinobis(3-ethylbenzothiazoline-6-sulfonic acid Ammonium Salt (ABTS) is commonly utilized as a stable free radical source in experiments. It is oxidized by potassium persulfate to produce an ABTS+ radical cation, which has a blue-green hue and absorbs light at 734 nm. When antioxidants are added, the free radical cations are reduced to the colorless ABTS form.
The ABTS+ was generated by mixing 7 mM ABTS and 4.09 mM potassium persulfate in the same volume, and the mixture was kept in the dark at room temperature for 12 h before use. The sample (1 mg/mL) group added sample 0.5 mL with 1 mL of ABTS+ solution. Control group was the same as the sample group, except that the sample was replaced with deionized water. Blank group was added deionized water 0.5 mL with 1 mL of ABTS+ solution. After incubation at room temperature for 6 min, the absorbance was tested at 734 nm. The positive control was 10 μg/mL glutathione (GSH). The sample’s concentration of 1 mg/mL falls within the linear range of the sample’s ABTS scavenging ability. (5) ABTS+Scavenging Activity=(1 − A1−A2/A3) × 100, where A1 is absorbance of sample group, A2 is absorbance of control group, and A3 is absorbance of blank group.

Data set [5] is described as follows: DPPH radical scavenging activity. The note with it: positive control 10 μg/mL. The procedure: The 2,2-diphenyl-1-picrylhydrazyl (DPPH) is a stable free radical with a distinct purple color and absorbs light at 517 nm. Antioxidants added to the DPPH solution lead to a reduction in the DPPH radical to a non-radical form, resulting in a decrease in the solution’s absorbance. […] This principle of DPPH radical scavenging is commonly utilized for evaluating the antioxidant capacity of various substances, such as peptides.
Sample (1 mg/mL) group was aliquots of samples being mixed 1:1 (v/v) with 0.1 mmol/L DPPH (in ethanol absolute); control group was aliquots of samples being mixed 1:1 (v/v) with ethanol absolute; and blank group was aliquots of ethanol absolute being mixed 1:1 (v/v) with 0.1 mmol/L DPPH (in ethanol absolute). The mixture was shaken and kept for 40 min at room temperature and protected from light. The radical scavenging activity of DPPH radical was determined by measuring the absorbance at 517 nm. […] In this study, the sample concentration was 1 mg/mL, which was determined to be within the linear range of the concentration of the sample and its DPPH scavenging ability. The ability of the sample to scavenge DPPH radical was calculated according to the following equation:(4) DPPH Radical Scavenging Activity=(1 − Ai−Aj/A0) × 100, where Ai is absorbance of sample group, Aj is absorbance of control group, and A0 is absorbance of blank group.
(In general: DPPH is a stable violet radical that fades when it is reduced.)

Data set [6] in a line: Hydroxyl radical scavenging activity (salicylic acid). The note with it: positive control 10 μg/mL. The procedure:
The hydroxyl radical (·OH) is a free radical that comprises an oxygen atom and a hydrogen atom (·OH). The principle behind measuring hydroxyl radical scavenging activity involves the reaction between the hydroxyl radical and salicylic acid, which produces 2, 3-dihydroxybenzoic acid that can be quantified by measuring the absorbance at 510 nm.
The 1 mL of sample (1 mg/mL) was mixed with 1 mL of 4.5 mmol/L of ferrous sulfate and 1 mL of 30% H2O2 (v/v). The reaction mixture was standing for 10 min after vortexing. Then, 1 mL of 4.5 mmol/L salicylic acid was added and subsequently vortexed. After a water bath at 37 °C for 30 min, the absorbance of the mixture was measured at 510 nm (As). For the control, deionized water was added instead of salicylic acid (Ac). Vitamin C (Vc) was used as a positive control at 10 μg/mL. Hydroxyl radical scavenging activity was calculated as follows:(6) Hydroxyl Radical Scavenging Activity=(1 − Ac−As/Ac) × 100,

Data set [7] deals with ACE. The conditions noted are these: cited from earlier work.

Take `O=C([O-])CN(CCN(CC(=O)O)CC(=O)O)CC(=O)[O-].[Na+].[Na+]` [EDTA-2Na]: the “Fe2+ chelating capacity” value in data set [1] was 28.81% ± 1.13.
What is called IC50 is the concentration at which inhibition is half-maximal. `CC[C@H](C)[C@H](NC(=O)[C@@H](N)Cc1ccccc1)C(=O)NCC(=O)N[C@@H](CCCNC(=N)N)C(=O)O` [FIGR] (H-FIGR-OH; N-terminus and C-terminus assumed): the IC50 in data set [2] is 1.22 mM. The “Retention rate after intestinal digestion” value (“Retention rate” below) in data set [3] is 50.78% ± 0.77.
With `CC[C@H](C)[C@H](NC(=O)[C@@H](N)Cc1ccccc1)C(=O)N[C@@H](CC(C)C)C(=O)N[C@@H](CCCNC(=N)N)C(=O)O` [FILR] (H-FILR-OH; N-terminus and C-terminus assumed), the “Retention rate” value in data set [3] is 86.23% ± 1.60.
On the same count and under the same terms, under `CC(C)C[C@H](NC(=O)[C@H](CCCNC(=N)N)NC(=O)[C@H](CCC(N)=O)NC(=O)[C@@H](N)Cc1ccccc1)C(=O)O` [FQRL] (H-FQRL-OH; N-terminus and C-terminus assumed) stands 25.62% ± 2.01.
As for `CC(C)C[C@H](NC(=O)[C@H](C)NC(=O)[C@H](CCCNC(=N)N)NC(=O)[C@@H](N)Cc1ccccc1)C(=O)O` [FRAL] (H-FRAL-OH; N-terminus and C-terminus assumed), the concentration for half-maximal inhibition (IC50) in data set [2] was 1.31 mM. In addition, the “Retention rate” value in data set [3] is reported as 10.83% ± 0.44.
As for `N[C@@H](CCC(=O)N[C@@H](CS)C(=O)NCC(=O)O)C(=O)O` [GSH, Glutathione], the ABTS scavenging capacity in data set [4] was 9.01% ± 0.69. For the same compound, the DPPH scavenging capacity in data set [5] was 33.25% ± 1.44.
Take `CC(C)C[C@H](NC(=O)[C@H](Cc1ccccc1)NC(=O)[C@@H](N)CCCCN)C(=O)O` [KFL] (H-Lys-Phe-Leu-OH; N-terminus and C-terminus assumed): the IC50 in data set [2] is 1.5 mM. Also, in data set [3], the “Retention rate” value is reported as 73.36% ± 0.86.
The like results for `CC(C)C[C@H](NC(=O)[C@@H](N)CCCCN)C(=O)N[C@@H](Cc1ccccc1)C(=O)O` [KLF] (H-Lys-Leu-Phe-OH; N-terminus and C-terminus assumed) were, in that order, 2.19 mM and 88.92% ± 2.60.
For `O=C1O[C@H]([C@@H](O)CO)C(O)=C1O` [Vc, Vitamin C], the “Hydroxyl radical scavenging ability” value in data set [6] is reported as 9.39% ± 0.54.
Turning to AEYLCEAC, the concentration for half-maximal inhibition (IC50) in data set [7] was 4.29 mM.
Take RWDISQPY: the ACE inhibition pattern entry in data set [7] is on record as “Competitive”.
